# From patent US5498627A, “Octahydro-2-naphthalenecarboxylic acid derivative, its production and use” (Takeda Chemical Industries, Ltd., priority 1994, dated 1996)
# Experiments:
# Farnesyltransferase = target: T1, Farnesyltransferase (Rattus norvegicus, UniProt Q02293+Q04631); test: Farnesyltransferase-inhibitory test (FT Assay Kit, SPA); type: biochemical; conditions: crude enzyme from rat brains; biotin-modified human lamin B C-terminal peptide, 3H-farnesylpyrophosphate; 37° C., 1 hour; read-out: concentration inhibiting farnesyltransferase activity by 50% (converted)
# T1 construct: Farnesyltransferase was prepared from rat brains; from tissue; host or cells: brain of male SD rats, 6 weeks old (Charles River); dialysed 30-50% ammonium sulfate fraction, crude enzyme solution
# Description: Farnesyltransferase was prepared from rat brains according to the method of Y. Reiss et al. (Cell 62, 81 (1990)) and all of the following procedures were performed at 4° C. That is, brains were removed from SD rats (male, 6 weeks old, Charles River) and sliced with a pair of scissors. Then 50 mM tris-hydrochloric acid buffer (pH 7.5)(2 ml per brain) containing 1 mM EDTA, 1 mM EGTA, 0.2 mM phenylmethylsulfonyl fluoride and 0.1 mM leupeptin was added. The mixture was homogenized with a Teflon homogenizer (manufactured by Hamada Rika, Japan) in ice. The extract was centrifuged at 60,000×g for 70 minutes. From the resulting supernatant, the precipitate fraction from 30 to 50 W/V % concentration of ammonium sulfate was recovered, and dialyzed overnight against 20 mM tris-hydrochloric acid buffer (pH 7.5) containing 1 mM dithiothreitol and 20 μM zinc chloride. The dialysed solution was centrifuged at 15,000×g for 10 minutes. […]
# Farnesyltransferase activity was determined using FT Assay Kit (manufactured by Amersham) as follows. […] The radioactivity produced by attachment of the ^3 H-farnesylated peptide to the SPA beads was measured with a scintillation counter to determine the amount of the ^3 H-farnesylated peptide. The farnesyltransferase-inhibitory activity of the compound TAN-1813 was calculated from the counts in the presence and absence of the compound TAN-1813.
# NIH3T3/K-ras cells = test: Cell growth-inhibitory test (MTT); type: cell-based; conditions: Mus musculus, NIH3T3, 72 h, 3 days incubation, read-out: concentration inhibiting the growth of NIH3T3/K-ras cells by 50%
# Description: The cell growth-inhibitory activity of the compound TAN-1813 was determined according to a modified method of Mosmann (Journal of Immunological Methods 65, 55 (1983) ) by using a K-ras transformant (NIH3T3/K-ras) of mouse embryonic fibroblast strain NIH3T3. That is, NIH3T3/K-ras cells were suspended in a medium at a cell density of 3×10^4 /ml. The suspension (0.1 ml per well) was dispensed into each well of a 96-well flat-bottomed plate (manufactured by Nunc) containing a solution (10 μl) of varying concentrations of the compound TAN-1813 dissolved in phosphate-buffered saline (PBS). The medium was Dulbecco modified Eagle's minimum essential medium (Whittaker Bioproducts, U.S.A.) containing 10 V/V % fetal calf serum (FCS, Whittaker Bioproducts, U.S.A.). The above plate was incubated for 3 days at 37° C. and 5% CO2. Then, 25 μl of tetrazolium salt MTT (Sigma, U.S.A.) solution (5 mg/ml) dissolved in PBS was added to each well. After incubation for 4 hours, 0.1 ml of 10% SDS solution dissolved in 0.01N hydrochloric acid was added to each well, and the plate was incubated overnight at 37° C. and 5% CO2. Absorbance at 620 nm was measured using Titertek Multiscan Spectrophotometer (Flow, U.S.A.). The growth inhibitory activity (%) was calculated from the absorbance values in the presence and absence of the compound TAN-1813.
# [1] = test system: human fibrosarcoma strain HT-1080; test: In vivo tumor growth inhibitory test; conditions: 50 mg/kg subcutaneously daily for 4 days beginning 10 days after transplantation; tumor size 18 days after transplantation; HT-1080 in nude mice
# Description: Cells of human fibrosarcoma strain HT-1080 (2×10^6 cells per mouse) were subcutaneously transplanted to nude mice. Three mice were used for each treated group. The compound TAN-1813 (50 mg/kg) was subcutaneously administered to the mice daily for 4 days beginning 10 days after the transplantation. Anti-tumor activity was evaluated by measuring tumor size 18 days after the transplantation of the cancer cells. Average tumor sizes of 3 mice in the untreated (C) and the compound TAN-1813-treated (T) group were measured, to determine the tumor growth inhibitory activity. The tumor size (mm^3) was calculated from the formula: 0.5×a×b^2 by measuring the major axis (mm) (a) and minor axis (mm) (b) with a calibrater.
# Solubility = type: physicochemical
smiles,measurement,setting,value
"C=CC(CCCCC)C1=C(C(=O)C2C(C)C=CC3(O)CC(C(=O)O)CC(C)C23)C(=O)NC1=O (centres unmarked) [TAN-1813, 5-[2,5-dihydro-4-(1-octen-3-yl)-2,5-dioxo-1H-pyrrole-3-carbonyl]-8a-hydroxy-4,6-dimethyl-1,2,3,4,4a,5,6,8a-octahydro-2-naphthalenecarboxylic acid]",IC50,Farnesyltransferase,26.2 µM
same,IC50,NIH3T3/K-ras cells,0.4 mg/L
same,tumor size ratio (T/C×100),[1],46%
same,Solubility,"Solubility; in methanol, ethyl acetate, chloroform, and dimethyl sulfoxide",Readily soluble
same,Solubility,"Solubility; in water, and hexane",Slightly soluble
